US20130136722A1, “Methods of Ex Vivo Expansion of Blood Progenitor Cells, and Generation of Composite Grafts” (The Board of Trustees of The University of Illinois, priority 2011, published 2013)
Where “and” joins values, the source holds several entries; their conditions need not be identical. Identical values can stand only once.

What was measured:
NOD/SCID mice [1] = experiment: Serial (secondary) transplantation of expanded CB cells; format: in vivo, mouse
NOD/SCID mice [2] = experiment: In vivo bone marrow homing assay; set-up: species or system mouse; settings: expanded CB cells homing to bone marrow; FIG. 2F
Experimental: In order to assess whether the lower SRC frequency, or lower hematopoietic chimerism, detected following transplantation of VPA expanded cells was due to a defect in the homing of transplanted cells to the host bone marrow, an in vivo homing assay was performed in NOD/SCID mice.

LINE-1 = experiment: Global DNA methylation (LINE-1) by pyrosequencing; format: cell-based, human; settings: CD34+ cells at day 3 of culture; FIG. 6A
Experimental: (§1) DNA methylation analysis was performed by EpigenDx (Worcester, Mass.) using quantitative pyrosequencing and the PSQ-HS96 system according to standard procedures (Warren et al., 2010, Cell Stem Cell. 7: 618-630). Primers were developed for the CpG sites near the promoter area as detailed in Table 3. Briefly, genomic DNA was isolated from primary or CMA expanded enriched CD34^+ cells using the Blood and Cell Culture DNA kit (Qiagen, Valencia Calif.). Genomic DNA was bisulfite treated by an EZ Methylation Kit (Zymo Research, Irvine, Calif.), and biotinylated gene specific primers or long interspersed nucleotide element 1 (LINE-1) primers were used to amplify regions of interest for analysis as described (Bhatia et al., 1997, J Exp Med. 186: 619-624).
Global methylation of genomic DNA was quantified by assaying long interspersed nucleotide element 1 (LINE 1) methylation as a surrogate marker (Yang et al., 2004, Nucleic Acids Res. 32: e38). The degree of global methylation of CD34^+ cells prior to and following ex vivo culture in the presence or absence of CMAs (5azaD/TSA and VPA) was determined in these experiments. […] CD34^+ cells cultured in 5azaD/TSA and VPA had 55.4%±2.2% and 77.2%±2.0% methylation respectively at day 3 (FIG. 6A).

[3] = system: promoter CpG sites (GATA1, S100A8, Cyp11A1); experiment: Pyrosequencing of promoter CpG sites of genes in expanded CD34+ cells; format: cell-based, human; settings: FIG. 5C
Experimental: as §1
Genomic DNA was isolated from primary, 5azaD/TSA or VPA expanded CD34^+ cells following culture using the Blood and Cell Culture DNA kit (Qiagen, Valencia Calif.). Genomic DNA was bisulfite treated by an EZ Methylation Kit (Zymo Research, Irvine, Calif.).

NOD/SCID mice [4] = experiment: SCID repopulating cell (SRC) frequency by limiting dilution analyses; format: in vivo, mouse; settings: for (# of NOD/SCID mice engrafted)/(# of mice transplanted): Day 9
Experimental: Immunodeficient nonobese diabetic/ltsz-scid/scid (NOD/SCID) mice were purchased from Jackson Laboratories (Bar Harbor, Me.) and transplantation assays were performed as described (Araki et al., 2009, Id.; Araki et al., 2007, Id.; Taswell, 1981, Id.). Equal number of primary CD34^+ cells or the progeny of an equal initial number of CD34^+ cells following culture were injected per mouse intravenously. Mice were sacrificed 8 weeks after transplantation, and bone marrow (BM) cells from each mouse were analyzed by flow cytometry to detect multilineage human cell engraftment.
The frequency of SCID-repopulating cells (SRCs) present in VPA-expanded, CD34^+CD90^+ cord blood-derived stem cells was quantitated in comparison to unmanipulated primary cord blood cells by in vivo xeno-transplant studies using limiting dilution analyses as described previously (Conneally et al., 1997, Proc. Natl. Acad. Sci. 94: 9836-41; Bhatia et al., 1997, J Exp Med. 186: 619-24; Wang et al., 1997, Blood 89: 3919-24; Chute et al., 2005, Blood 105: 576-83). The frequency of SRC was 1 in 22,000 (95% Confidence Interval: 1/11,722-1/41,293) in primary CD34^+CD90^+ cells, and 1 in 21,720 (95% Confidence Interval: 1/11,160-1/42,269) in the VPA expanded cultures (Table 5 and FIG. 2E).

[5] = system: cobblestone area-forming cells (CAFC); experiment: Cobblestone area-forming cell (CAFC) assay, limiting dilution on M2-10B4 stromal cells; format: cell-based, human; settings: for CAFC Frequency/10^4 cells: limiting dilution, mean ± SEM of three independent experiments
Experimental: (§2) Colony-forming cell (CFC) were assayed by plating 5×10^2 cells per dish in semisolid media and were counted after 14 days as described (Araki et al., 2009, Id.). The number of cobble stone area-forming cell (CAFC) was quantitated in primary and expanded CD34+ cells by plating in limiting dilution onto irradiated M2-10B4 stromal cells as described (Araki et al., 2009, Id.; Conneally et al., 1997, Proc. Natl. Acad. Sci. USA. 94: 9836-9841; Taswell, 1981, J. Immunol. 126: 1614-1619).
(§3) In order to determine the a correlation between expansion of CD34^+CD90^+ cells and their functional potential as pluripotent hematopoietic stem cells, in vitro functional assays were performed, including assessment of colony-forming cells (CFC), a short-term assay, and cobblestone-area forming cells (CAFC), a long-term assay.

[6] = system: colony-forming cells (CFC); experiment: Colony-forming cell (CFC) assay of CMA expanded CB cells; format: cell-based, human; settings: for CFC PE (%) (Colony Forming Cell Plating Efficiency): mean ± SEM of three independent experiments
Experimental: as §2, §3

CCCC(CCC)C(=O)O [VPA, valproic acid]
Secondary mouse BM chimerism (% human) (NOD/SCID mice [1]; 10-30 × 10^6 unseparated BM cells from primary mouse, sacrificed 7 weeks later, individual mice): Not Detectable
Primary mouse BM chimerism (% human) (NOD/SCID mice [1]; progeny of 1 × 10^4 primary CB cells treated ex vivo for 9 days, individual mice): 0.60 % human and 1.0 % human (2×) and 0.30 % human and 5.6 % human
secondary hosts engrafted (NOD/SCID mice [1]; serial transplantation from primary recipients): none of the 5
homing efficiency (NOD/SCID mice [2]): 1.68%
mean LINE 1 methylation (four CpG sites) (LINE-1): 77.2%
methylation levels of S100A8 and Cyp11A1 gene promoter sites [3]: almost completely lacked any changes in methylation
methylation of the GATA1 gene promoter [3]: minimal demethylation
(# of NOD/SCID mice engrafted)/(# of mice transplanted) (NOD/SCID mice [4]; 2,000 CD34+CD90+ cells used to initiate ex vivo culture): 0/7
(# of NOD/SCID mice engrafted)/(# of mice transplanted) (NOD/SCID mice [4]; 5,000 CD34+CD90+ cells used to initiate ex vivo culture): 2/5
(# of NOD/SCID mice engrafted)/(# of mice transplanted) (NOD/SCID mice [4]; 10,000 CD34+CD90+ cells used to initiate ex vivo culture): 2/7
(# of NOD/SCID mice engrafted)/(# of mice transplanted) (NOD/SCID mice [4]; 20,000 CD34+CD90+ cells used to initiate ex vivo culture): 5/8
SRC numbers during ex-vivo culture (in words) (NOD/SCID mice [4]; mouse, in vivo): maintained SRC numbers
fold expansion of long term (5 weeks) CAFC ([5]; FIG. 2B): 8.4±1.6 fold
CAFC Frequency/10^4 cells [5]: 14.67±0.74 /10^4 cells
CAFC Frequency/10^4 cells ([5]; listed as VPA Alone): 14.67 ± 0.74 /10^4 cells
fold expansion of primitive CFU-mix colonies ([6]; cytokines plus CMA, FIG. 2A): 13.3±4.7 fold
CFC PE (%) (Colony Forming Cell Plating Efficiency) [6]: 15.27%
CFC PE (%) (Colony Forming Cell Plating Efficiency) ([6]; listed as VPA Alone): 15.27 ± 3.66 %
